Test results taken from paper PMC7862291, “Full-length in meso structure and mechanism of rat kynurenine 3-monooxygenase inhibition” (Communications Biology, 2021).

What was measured:
[1] = molecular target: T1, HEK293 cells stably expressing rat KMO (Rattus norvegicus, UniProt O88867); assay: Cell-based rat KMO inhibition assay (LC/MS of 3-hydroxykynurenine)
T1 construct: expressed in transfected cells
Procedure, shortened: (§1)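 HEK293 lines stably expressing human or rat KMO, pre-incubated ~30 min at 37 °C with compound (final 0–30 μM, 0.3% DMSO) in HBSS/20 mM HEPES. Then 2 h at 37 °C with 0.2 mM kynurenine (solution concentration). 3-Hydroxykynurenine in cell extracts quantified by LC-MS/MS, positive ESI.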

[2] = molecular target: T2, Rat KMO (Rattus norvegicus, UniProt O88867); assay: Rat KMO enzyme (cell-free) assay, NADPH consumption by absorbance; format: biochemical
T2 construct: The GST-tagged full-length KMO (1-478) baculovirus vector contained a thrombin cleavage site; GST (thrombin cleavage site between GST and KMO) (N, cleaved yes); made in house; host or cells: Spodoptera frugiperda (Sf9), baculovirus
T2 sequence (O88867 whole entry): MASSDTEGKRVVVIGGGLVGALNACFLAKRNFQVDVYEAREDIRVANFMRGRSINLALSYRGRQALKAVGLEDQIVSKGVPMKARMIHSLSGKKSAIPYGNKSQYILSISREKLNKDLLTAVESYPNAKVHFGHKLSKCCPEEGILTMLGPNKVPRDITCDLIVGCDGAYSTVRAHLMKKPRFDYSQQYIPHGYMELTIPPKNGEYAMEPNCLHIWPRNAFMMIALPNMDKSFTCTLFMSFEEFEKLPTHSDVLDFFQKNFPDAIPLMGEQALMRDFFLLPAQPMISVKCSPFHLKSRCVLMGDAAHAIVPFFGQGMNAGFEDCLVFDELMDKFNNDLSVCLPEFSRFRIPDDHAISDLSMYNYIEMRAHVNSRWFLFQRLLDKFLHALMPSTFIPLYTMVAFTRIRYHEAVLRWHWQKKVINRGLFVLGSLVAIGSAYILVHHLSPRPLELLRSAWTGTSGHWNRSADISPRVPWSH
Procedure, shortened: (§2)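 Recombinant human KMO or purified full-length rat KMO, pre-incubated 5 min with compound in HEPES buffer pH ~7.9 with MgCl2, EGTA, DTT, Tween20. Substrate mix of 2.4 mM kynurenine and 0.6 mM NADPH (solution concentrations) added; 90 min at 30 °C. Stopped with maleimide, then WST-9/1-methoxy-PMS colour read-out.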

[3] = molecular target: T3, HEK293 cells stably expressing human KMO (Homo sapiens, UniProt O15229); assay: Cell-based human KMO inhibition assay (LC/MS of 3-hydroxykynurenine)
T3 construct: expressed in transfected cells
T3 sequence (O15229 whole entry): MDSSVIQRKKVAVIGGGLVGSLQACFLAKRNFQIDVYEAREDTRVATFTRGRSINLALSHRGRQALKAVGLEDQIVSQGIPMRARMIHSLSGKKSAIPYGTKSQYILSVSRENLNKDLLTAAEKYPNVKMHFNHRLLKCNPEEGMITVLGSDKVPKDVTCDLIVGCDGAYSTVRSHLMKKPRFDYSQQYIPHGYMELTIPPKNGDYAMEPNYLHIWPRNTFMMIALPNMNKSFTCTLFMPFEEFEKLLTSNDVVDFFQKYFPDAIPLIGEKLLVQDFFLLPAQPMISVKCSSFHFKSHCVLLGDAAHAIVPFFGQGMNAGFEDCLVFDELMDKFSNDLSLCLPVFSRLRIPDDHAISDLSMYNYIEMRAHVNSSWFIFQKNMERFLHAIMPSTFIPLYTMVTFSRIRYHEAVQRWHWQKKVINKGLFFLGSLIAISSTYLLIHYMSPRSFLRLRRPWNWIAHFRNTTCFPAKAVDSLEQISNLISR
Procedure, shortened: as §1

[4] = molecular target: T4, hKMO (Homo sapiens, UniProt O15229); assay: Human KMO enzyme (cell-free) assay, NADPH consumption by absorbance; format: biochemical
T4 construct: purchased Origene
T4 sequence (O15229 whole entry): as above
Procedure, shortened: as §2

T1 sequence (O88867 whole entry): as the sequence (O88867 whole entry) above

- inhibition at 0.3 µM ([1]; HEK293, conc 0.3 μM, duplicates, read-out: inhibition rate, Rat-KMO cellular assay (Figure 1D source data)): 62%
- inhibition at 1 µM ([1]; HEK293, conc 1 μM, duplicates, read-out: inhibition rate, Rat-KMO cellular assay (Figure 1D source data)): 91.7%
- inhibition at 3 µM ([1]; HEK293, conc 3 μM, duplicates, read-out: inhibition rate, Rat-KMO cellular assay (Figure 1D source data)): 97.7%
- inhibition at 10 µM ([1]; HEK293, conc 10 μM, duplicates, read-out: inhibition rate, Rat-KMO cellular assay (Figure 1D source data)): 100%
- inhibition at 30 µM ([1]; HEK293, conc 30 μM, duplicates, read-out: inhibition rate, Rat-KMO cellular assay (Figure 1D source data)): 100%
- IC50 ([1]; HEK293 cells expressing rat KMO, LC/MS): 240 nM
- inhibition rate, Rat-KMO cellular assay (Figure 1D source data) ([1]; conc 0.3 μM, duplicates): 48.933%
- inhibition rate, Rat-KMO cellular assay (Figure 1D source data) ([1]; conc 1 μM, duplicates): 83.933%
- inhibition rate, Rat-KMO cellular assay (Figure 1D source data) ([1]; conc 3 μM, duplicates): 95.840%
- inhibition rate, Rat-KMO cellular assay (Figure 1D source data) ([1]; conc 10 μM, duplicates): 99.692%
- inhibition rate, Rat-KMO cellular assay (Figure 1D source data) ([1]; conc 30 μM, duplicates): 100.882%
- IC50 ([2]; cell-free enzyme assay, high kynurenine): 9 nM
- inhibition rate, Rat-KMO cell-free assay (Figure 1B source data) ([2]; conc 0.0003 μM, duplicates): 0.623%
- inhibition at 0.0003 µM ([2]; conc 0.0003 μM, duplicates, read-out: inhibition rate, Rat-KMO cell-free assay (Figure 1B source data)): 0.676%
- inhibition rate, Rat-KMO cell-free assay (Figure 1B source data) ([2]; conc 0.001 μM, duplicates): 5.077%
- inhibition at 0.001 µM ([2]; conc 0.001 μM, duplicates, read-out: inhibition rate, Rat-KMO cell-free assay (Figure 1B source data)): 6.43%
- inhibition rate, Rat-KMO cell-free assay (Figure 1B source data) ([2]; conc 0.003 μM, duplicates): 23.289%
- inhibition at 0.003 µM ([2]; conc 0.003 μM, duplicates, read-out: inhibition rate, Rat-KMO cell-free assay (Figure 1B source data)): 23.8%
- inhibition rate, Rat-KMO cell-free assay (Figure 1B source data) ([2]; conc 0.01 μM, duplicates): 55.764%
- inhibition at 0.01 µM ([2]; conc 0.01 μM, duplicates, read-out: inhibition rate, Rat-KMO cell-free assay (Figure 1B source data)): 56.6%
- inhibition rate, Rat-KMO cell-free assay (Figure 1B source data) ([2]; conc 0.03 μM, duplicates): 81.294%
- inhibition at 0.03 µM ([2]; conc 0.03 μM, duplicates, read-out: inhibition rate, Rat-KMO cell-free assay (Figure 1B source data)): 81.3%
- inhibition rate, Rat-KMO cell-free assay (Figure 1B source data) ([2]; conc 0.1 μM, duplicates): 84.395%
- inhibition at 0.1 µM ([2]; conc 0.1 μM, duplicates, read-out: inhibition rate, Rat-KMO cell-free assay (Figure 1B source data)): 83.1%
- inhibition rate, Rat-KMO cell-free assay (Figure 1B source data) ([2]; conc 0.3 μM, duplicates): 91.102%
- inhibition at 0.3 µM ([2]; conc 0.3 μM, duplicates, read-out: inhibition rate, Rat-KMO cell-free assay (Figure 1B source data)): 92.2%
- inhibition rate, Rat-KMO cell-free assay (Figure 1B source data) ([2]; conc 1 μM, duplicates): 84.342%
- inhibition at 1 µM ([2]; conc 1 μM, duplicates, read-out: inhibition rate, Rat-KMO cell-free assay (Figure 1B source data)): 88.8%
- inhibition at 0.0003 µM ([3]; HEK293, conc 0.0003 μM, duplicates, read-out: inhibition rate, Hs-KMO cellular assay (Figure 1C source data)): 6.79%
- inhibition at 0.001 µM ([3]; HEK293, conc 0.001 μM, duplicates, read-out: inhibition rate, Hs-KMO cellular assay (Figure 1C source data)): 11%
- inhibition at 0.003 µM ([3]; HEK293, conc 0.003 μM, duplicates, read-out: inhibition rate, Hs-KMO cellular assay (Figure 1C source data)): 12.3%
- inhibition at 0.01 µM ([3]; HEK293, conc 0.01 μM, duplicates, read-out: inhibition rate, Hs-KMO cellular assay (Figure 1C source data)): 32.5%
- inhibition at 0.03 µM ([3]; HEK293, conc 0.03 μM, duplicates, read-out: inhibition rate, Hs-KMO cellular assay (Figure 1C source data)): 100%
- inhibition at 0.1 µM ([3]; HEK293, conc 0.1 μM, duplicates, read-out: inhibition rate, Hs-KMO cellular assay (Figure 1C source data)): 104%
- inhibition at 0.3 µM ([3]; HEK293, conc 0.3 μM, duplicates, read-out: inhibition rate, Hs-KMO cellular assay (Figure 1C source data)): 105%
- IC50 ([3]; HEK293 cells expressing human KMO, LC/MS, read-out: Human cell-based assay IC50): 12 nM
- inhibition rate, Hs-KMO cellular assay (Figure 1C source data) ([3]; conc 0.0003 μM, duplicates): 4.270%
- inhibition rate, Hs-KMO cellular assay (Figure 1C source data) ([3]; conc 0.001 μM, duplicates): 10.835%
- inhibition rate, Hs-KMO cellular assay (Figure 1C source data) ([3]; conc 0.003 μM, duplicates): 13.039%
- inhibition rate, Hs-KMO cellular assay (Figure 1C source data) ([3]; conc 0.01 μM, duplicates): 26.636%
- inhibition rate, Hs-KMO cellular assay (Figure 1C source data) ([3]; conc 0.03 μM, duplicates): 98.487%
- inhibition rate, Hs-KMO cellular assay (Figure 1C source data) ([3]; conc 0.1 μM, duplicates): 104.397%
- IC50 ([4]; cell-free enzyme assay, high kynurenine, read-out: Human KMO IC50): 3.8 nM
- inhibition rate, Hs-KMO cell-free assay (Figure 1A source data) ([4]; conc 0.0003 μM, duplicates): 2.492%
- inhibition at 0.0003 µM ([4]; conc 0.0003 μM, duplicates, read-out: inhibition rate, Hs-KMO cell-free assay (Figure 1A source data)): 4.34%
- inhibition rate, Hs-KMO cell-free assay (Figure 1A source data) ([4]; conc 0.001 μM, duplicates): 10.698%
- inhibition at 0.001 µM ([4]; conc 0.001 μM, duplicates, read-out: inhibition rate, Hs-KMO cell-free assay (Figure 1A source data)): 11%
- inhibition rate, Hs-KMO cell-free assay (Figure 1A source data) ([4]; conc 0.003 μM, duplicates): 34.671%
- inhibition at 0.003 µM ([4]; conc 0.003 μM, duplicates, read-out: inhibition rate, Hs-KMO cell-free assay (Figure 1A source data)): 36%
- inhibition rate, Hs-KMO cell-free assay (Figure 1A source data) ([4]; conc 0.01 μM, duplicates): 91.745%
- inhibition at 0.01 µM ([4]; conc 0.01 μM, duplicates, read-out: inhibition rate, Hs-KMO cell-free assay (Figure 1A source data)): 91.2%
- inhibition rate, Hs-KMO cell-free assay (Figure 1A source data) ([4]; conc 0.03 μM, duplicates): 101.827%
- inhibition at 0.03 µM ([4]; conc 0.03 μM, duplicates, read-out: inhibition rate, Hs-KMO cell-free assay (Figure 1A source data)): 102%
- inhibition rate, Hs-KMO cell-free assay (Figure 1A source data) ([4]; conc 0.1 μM, duplicates): 97.991%
- inhibition at 0.1 µM ([4]; conc 0.1 μM, duplicates, read-out: inhibition rate, Hs-KMO cell-free assay (Figure 1A source data)): 98.8%
- inhibition rate, Hs-KMO cell-free assay (Figure 1A source data) ([4]; conc 0.3 μM, duplicates): 101.967%
- inhibition at 0.3 µM ([4]; conc 0.3 μM, duplicates, read-out: inhibition rate, Hs-KMO cell-free assay (Figure 1A source data)): 103%
- inhibition rate, Hs-KMO cell-free assay (Figure 1A source data) ([4]; conc 1 μM, duplicates): 95.974%
- inhibition at 1 µM ([4]; conc 1 μM, duplicates, read-out: inhibition rate, Hs-KMO cell-free assay (Figure 1A source data)): 103%
Structure (SMILES): Cc1cnn(-c2ccc(OCc3ccccc3)c(C(=O)O)c2)c1-c1ccc(Cl)c(F)c1 [Compound 3]
